Data published in patent publication US20120283216A1, “FUNGICIDAL 2-(BICYCLIC ARYLOXY)CARBOXAMIDES” (priority 2009, published 2012).

What was measured:
Assay type in all cases: in vivo
[1] = system: Blumeria graminis f. sp. tritici; assay: Test A: wheat powdery mildew, preventive spray on wheat seedlings, visual disease rating; settings: preventive spray at 40 ppm, rated 8 days after inoculation; for pest or weed control at 40 ppm: Blumeria graminis, 192 h, read-out: Test A disease control rating (100 = 100% disease control, 0 = no disease control relative to the controls)
Method in brief: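 Wheat seedlings sprayed to run-off with 40 ppm compound (equivalent to 800 g/ha) in acetone/water with 250 ppm surfactant, then dusted with B. graminis spores next day. Held at 20° C. for 8 days before visual rating, 0–100 scale as % disease control relative to controls.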

Botrytis cinerea = assay: Test C: tomato botrytis, preventive spray on tomato seedlings, visual disease rating; settings: preventive spray at 40 ppm, rated after 48 h + 3 days; for pest or weed control at 40 ppm: Botrytis cinerea, 120 h, read-out: Test C disease control rating (100 = 100% disease control, 0 = no disease control relative to the controls)
Method in brief: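 Compounds applied at 40 ppm (≈800 g/ha) in acetone/water with surfactant, sprayed to run-off on tomato seedlings. Inoculated next day with B. cinerea spores; 48 h saturated humidity at 20 °C, then 3 days at 27 °C. Visual rating as % disease control versus untreated controls.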

Septoria tritici = assay: Test B: wheat leaf blotch, preventive spray on wheat seedlings, visual disease rating; settings: preventive spray at 40 ppm, rated after 48 h + 19 days; for pest or weed control at 40 ppm: Zymoseptoria tritici, 504 h, read-out: Test B disease control rating (100 = 100% disease control, 0 = no disease control relative to the controls)
Method in brief: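 Wheat seedlings were sprayed to run-off with 40 ppm compound (≈800 g/ha) in acetone/water with 250 ppm surfactant, then inoculated with Septoria tritici spores the next day. After 48 h saturated humidity at 20° C and 19 days in a growth chamber at 20° C, disease control was rated visually (0–100% vs controls).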

Row | Compound | Test A disease control rating (100 = 100% disease control, 0 = no disease control relative to the controls) [1] [%] | Test C disease control rating (100 = 100% disease control, 0 = no disease control relative to the controls) (Botrytis cinerea) [%] | Test B disease control rating (100 = 100% disease control, 0 = no disease control relative to the controls) (Septoria tritici) [%] | pest or weed control at 40 ppm [1] [%] | pest or weed control at 40 ppm (Botrytis cinerea) [%] | pest or weed control at 40 ppm (Septoria tritici) [%]
1 | C#CC(C)(C)NC(=O)C(OC)Oc1ccc2ccc(OC)cc2c1 (stereo not drawn) [Compound 82] | 96 | 100 | 99 |  |  | 
2 | COCC(C)(C)NC(=O)C(OC)Oc1ccc2ccc(OC)cc2c1 (stereo not drawn) [Compound 83] | 96 | 100 | 99 |  |  | 
3 | CCC(Oc1ccc2ccc(OC)cc2c1)C(=O)NC(C)(C)C(=O)OC (stereo not drawn) [Compound 84] | 0 | 100 | 84 |  |  | 
4 | C#CC1(NC(=O)C(CC)Oc2ccc3ccc(OC)cc3c2)CCCCC1 (stereo not drawn) [Compound 85] |  |  |  | 0 | 99 | 84
5 | C#CC(CC)(CC)NC(=O)C(CC)Oc1ccc2ccc(OC)cc2c1 (stereo not drawn) [Compound 86] | 0 | 19 | 19 |  |  | 
6 | CCC(Oc1ccc2ccc(OC)cc2c1)C(=O)NC(C)(C)C#N (stereo not drawn) [Compound 87] | 0 | 100 | 100 |  |  | 
7 | CCC(Oc1ccc2ccc(OC)cc2c1)C(=O)NC(C)(C)COC (stereo not drawn) [Compound 88] | 99 | 100 | 100 |  |  | 
8 | CCC(Oc1ccc2ccc(O)cc2c1)C(=O)NC(C)(C)C (stereo not drawn) [Compound 89] |  |  |  | 0 | 86 | 63
9 | COCC(C)(C)NC(=O)C(OC)Oc1ccc2ccc(Br)cc2c1 (stereo not drawn) [Compound 90, 2-[(7-bromo-2-naphthalenyl)oxy]-2-methoxy-N-(2-methoxy-1,1-dimethylethyl)acetamide] |  |  |  | 100 | 100 | 100
10 | CCC(Oc1ccc2ccc(SC)cc2c1)C(=O)NC(C)(C)COC (stereo not drawn) [Compound 91] | 97 | 100 | 100 |  |  | 
11 | CCC(Oc1ccc2ccc(I)cc2c1)C(=O)NC(C)(C)COC (stereo not drawn) [Compound 92] | 100 | 100 | 100 |  |  | 
12 | COC(Oc1ccc2ccc(Br)cc2c1)C(=O)NC(C)(C)C#N (stereo not drawn) [Compound 93] | 95 | 100 | 100 |  |  | 
13 | C#CC(C)(C)NC(=O)C(OC)Oc1ccc2ccc(Br)cc2c1 (stereo not drawn) [Compound 94] | 99 | 100 | 100 |  |  | 
14 | CCC(Oc1ccc2ccc(C#C[Si](C)(C)C)cc2c1)C(=O)NC(C)(C)COC (stereo not drawn) [Compound 96] | 0 | 99 | 100 |  |  | 
15 | C#Cc1ccc2ccc(OC(CC)C(=O)NC(C)(C)COC)cc2c1 (stereo not drawn) [Compound 97, 2-[(7-ethynyl-2-naphthalenyl)oxy]-N-(2-methoxy-1,1-dimethylethyl)-butanamide] |  |  |  | 100 | 99 | 100
16 | CCC(C)(C)NC(=O)C(OC)Oc1ccc2ccc(Br)cc2c1 (stereo not drawn) [Compound 101] | 92 | 100 | 100 |  |  | 

Row | Compound | Test A disease control rating (100 = 100% disease control, 0 = no disease control relative to the controls) [1] [%] | Test C disease control rating (100 = 100% disease control, 0 = no disease control relative to the controls) (Botrytis cinerea) [%] | Test B disease control rating (100 = 100% disease control, 0 = no disease control relative to the controls) (Septoria tritici) [%] | pest or weed control at 40 ppm [1] [%] | pest or weed control at 40 ppm (Botrytis cinerea) [%] | pest or weed control at 40 ppm (Septoria tritici) [%]
17 | CCC(Oc1ccc2ccc(Br)cc2c1)C(=O)NC(C)(C)CC (stereo not drawn) [Compound 102] | 0 | 61 | 96 |  |  | 
18 | COCC(C)(C)NC(=O)C(OC)Oc1ccc2ccc(I)cc2c1 (stereo not drawn) [Compound 103, 2-[(7-iodo-2-naphthalenylyl)oxy]-2-methoxy-N-(2-methoxy-1,1-dimethylethyl)acetamide] | 100 | 100 | 100 |  |  | 
19 | COC(Oc1ccc2ccc(I)cc2c1)C(=O)NC(C)(C)C#N (stereo not drawn) [Compound 104] | 94 | 99 | 100 |  |  | 
20 | COCC(C)(C)NC(=O)C(OC)Oc1ccc2ccc(C#C[Si](C)(C)C)cc2c1 (stereo not drawn) [Compound 105] | 79 | 90 | 100 |  |  | 
21 | C#Cc1ccc2ccc(OC(OC)C(=O)NC(C)(C)COC)cc2c1 (stereo not drawn) [Compound 106, 2-[(7-ethynyl-2-naphthalenyl)oxy]-2-methoxy-N-(2-methoxy-1,1-dimethylethyl)acetamide] |  |  |  | 100 | 99 | 100
22 | CC#Cc1ccc2ccc(OC(CC)C(=O)NC(C)(C)COC)cc2c1 (stereo not drawn) [Compound 107, N-(2-methoxy-1,1-dimethylethyl)-2-[[7-(1-propyn-1-yl)-2-naphthalenyl]oxy]butanamide] |  |  |  | 100 | 99 | 100
23 | CC#Cc1ccc2ccc(OC(OC)C(=O)NC(C)(C)COC)cc2c1 (stereo not drawn) [Compound 108, 2-methoxy-N-(2-methoxy-1,1-dimethylethyl)-2-[[7-(1-propyn-1-yl)-2-naphthalenyl]oxy]acetamide] |  |  |  | 100 | 48 | 100
24 | C#Cc1ccc2ccc(OC(CC)C(=O)NC(C)(C)C)cc2c1 (stereo not drawn) [Compound 109, N-(1,1-dimethylethyl)-2-[(7-ethynyl-2-naphthalenyl)oxy]butanamide] |  |  |  | 100 | 99 | 100
25 | C#Cc1ccc2ccc(OC(CC)C(=O)NC(C)(C)C#N)cc2c1 (stereo not drawn) [Compound 110, N-(1-cyano-1-methylethyl)-2-[(7-ethynyl-2-naphthalenyl)oxy]butanamide] |  |  |  | 100 | 100 | 100
26 | C#Cc1ccc2ccc(OC(CC)C(=O)NC(C)(C)C#CC)cc2c1 (stereo not drawn) [Compound 111, N-(1,1-dimethyl-2-butyn-1-yl)-2-[(7-ethynyl-2-naphthalenyl)oxy]butanamide] |  |  |  | 100 | 100 | 100
27 | CCOC(Oc1ccc2ccc(OC)cc2c1)C(=O)NC(C)(C)COC (stereo not drawn) [Compound 113] | 97 | 99 | 100 |  |  | 
28 | CCOC(Oc1ccc2ccc(OC)cc2c1)C(=O)NC(C)(C)C (stereo not drawn) [Compound 114] |  |  |  | 90 | 99 | 99
29 | C#CC(C)(C)NC(=O)C(OCC)Oc1ccc2ccc(OC)cc2c1 (stereo not drawn) [Compound 115] | 79 | 97 | 99 |  |  | 
30 | CCOC(Oc1ccc2ccc(OC)cc2c1)C(=O)NC(C)(C)C#N (stereo not drawn) [Compound 116] | 13 | 99 | 99 |  |  | 
31 | CCOC(Oc1ccc2ccc(OC)cc2c1)C(=O)NC(C)(C)CC (stereo not drawn) [Compound 117] | 0 | 98 | 93 |  |  | 
